According to patent publication US20160184459A1, “CANCER CELL SPECIFIC IMAGING PROBES AND METHODS OF USE” (THE RESEARCH FOUNDATION FOR THE STATE UNIVERSITY OF NEW YORK, priority 2013, published 2016):

System: HCT116 xenograft tumor
Experiment: HCT116 mouse xenograft model
Assay type: in vivo
From the text: FIG. 20. In vivo anticancer efficacy of BKAc-Puro. […] HCT116 cells were implanted subcutaneously into female nude mice. When the developed tumors reached 200 mm^3, animals were intraperitoneally injected by the indicated dose of the compound or vehicle control (DMSO). Tumor volume was estimated by the equation vol=(a×b^2)/2, where vol, a, and b represent volume, the length of the major axis, and the length of the minor axis, respectively. Arrows indicate the time points of treatment. (b) Body weight change during the treatment in a. Value is expressed in percent change compared to the day of the first treatment.
FIG. 21. HCT116 cells were implanted subcutaneously into female nude mice. When palpable tumors reached 50-150 mm^3, animals were randomized and treated by the indicated dose of the compound or vehicle control (DMSO) via intraperitoneal injection. Tumor incidence is presented as number of mice developed tumor (volume >300 mm^3) after 2 weeks of daily treatment/number of mice treated. Tumor volume was estimated by the equation vol=(a×b^2)/2, where vol, a, and b represent volume, the length of the major axis, and the length of the minor axis, respectively.
FIG. 29. In vivo anticancer efficacy of Boc-KAc-Puro. (a) Tumor growth in HCT116 xenograft model. Animals were treated with acidified saline control or Boc-KAc-Puro (50 or 150 mg/kg). Values are mean±s.d. (n=5 mice per group). *** P<0.001 compared to the control group. P=0.000716 (50 mg/kg), P=0.000349 (150 mg/kg) at 10 d. (b) Body weight change during the treatment in a and was monitored as a sign of general animal health. Values are mean±s.d. (c) Tumor growth in HT29 xenograft model. Animals were treated with acidified saline control or Boc-KAc-Puro (150 mg/kg). Values are mean±s.d. (n=5 mice per group). *** P<0.001 compared to the control group. P=0.000514 (150 mg/kg) at 10 d. (d) Body weight change during the treatment in c was monitored as a sign of general animal health. Values are mean±s.d. (e) Levels of Puro-incorporated proteins were monitored by immunoblotting. Animals bearing HT29 xenograft tumor were given daily intraperitoneal administration of the prodrug at 150 mg/kg/dose for 3 d, followed by preparation of tissue lysates. The lower panel (anti-α-Tubulin) served as a loading control.
To assess the in vivo efficacy of the compounds, mouse xenograft model using HCT116 colon cancer cells is used as an established evaluation method for the anticancer drugs against cancer (Cao, Z. A. et al. 2006). The growth inhibitory effects of the compounds on size-matched xenografts are examined by subcutaneous implantation of HCT116 cells into nude mice. HCT116 cells are injected subcutaneously and allowed to develop palpable tumors (50-150 mm^3) before initiation of drug administration. Mice (5-10 animals per group) are treated with the vehicle (DMSO or PBS) or the prodrugs by intraperitoneal administration. Dose ranges are determined by the dose escalation studies of the prodrugs. […] Relative tumor volume is calculated by dividing tumor volume by that on day 0 (the day of treatment initiation). […] Statistical significance of the data is evaluated by performing one-way ANOVA with post hoc Turkey's test to compare means (GraphPad Prism software). The efficacy of the compounds is further evaluated in a similar manner by using other cancer cell lines. […]

COc1ccc(CC(NC(=O)C(CCCCNC(C)=O)NC(=O)OC(C)(C)C)C(=O)NC2C(O)[C@H](n3cnc4c(N(C)C)ncnc43)O[C@@H]2CO)cc1 (stereo partly drawn) [BKAc-Puro, N-[3′-(α-Amino-p-methoxyhydrocinnamamido)-3′-deoxy-N,N-dimethyldenosinyl)-N-α-(t-butoxycarbonyl]-N-ε-acetyl-L-lysineamide]
Tumors developed at 200 mg/kg (200 mg/kg, intraperitoneal, 2 weeks daily): no tumors greater than 300 mm^2 were observed
Tumor growth (50 and 150 mg/kg/dose daily intraperitoneally for 10 d): dose-dependent inhibition of tumor growth
Tumor mass in comparison to acidified saline control (50 and 150 mg/kg/dose, 10 d, P<0.001): significantly smaller tumor mass
Tumor incidence (intraperitoneal, 2 weeks of daily treatment): inhibition of tumor incidence
Tumor growth (intraperitoneal, treatment from tumors of 200 mm^3, DMSO vehicle control): inhibition of tumor growth
